The record followed here is patent US20230219965A1 (KSQ Therapeutics, Inc., priority 2020, published 2023).

Read-outs that look alike come from different tables or passages of the source. Where only a bound is given, the exact number is not on record here.

A short description of data set [1]: Liver microsomal metabolic stability, rat liver microsomes (RLM). As to conditions: rat, liver microsomes, t1/2 (min) in RLM, 1 μM compound, 1 mg/mL microsomes, NADPH. (Microsomes from liver hold many membrane-bound enzymes, among them those of drug oxidation.)
The test system of data set [2] is Ub-PCNA levels in the nucleus of ES2 cells (USP1 activity). Kind of data set: ES2 Ub-PCNA immunofluorescence (IF) assay. It counts as cell-based. As to conditions: Homo sapiens, ES-2; ES2 cells, 3 hours, Ub-PCNA immunofluorescence; read-out: USP1 IC50 (Ub-PCNA). In a few lines: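 AC50 derived from percent Ub-PCNA-positive nuclei, positivity set by a 95% cutoff from untreated-well intensities. Readout by imaging immunofluorescence (anti-Ub-PCNA, DAPI nuclear mask) after methanol fixation. Compound exposure: 3 h at 37° C, 0.3% DMSO final, on cells plated overnight.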

A short description of data set [3]: ADME solubility determination in PBS at pH 2.0 and pH 7.4. It counts as physicochemical. Particulars: phosphate buffered saline, 25 °C, thermodynamic from solid. An outline of the steps:
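Solubility was read by LC-MS/MS on centrifuged supernatants, calibrated to a known-concentration standard and corrected for dilution. Compound, dried down from 10 mM DMSO stock, was equilibrated 24 h at 25° C with shaking in PBS at pH 2.0 or pH 7.4.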

In data set [4] the target is USP1/UAF1 enzyme (Homo sapiens, UniProt O94782). Kind of data set: USP1/UAF1 deubiquitination assay (ubiquitin-rhodamine 110 substrate). It counts as biochemical. As to conditions: read-out: USP1 IC50 (Ub-Rho). In a few lines:
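Cleavage of 150 nM ubiquitin-rhodamine 110 by 0.05 nM USP1/UAF1 was followed as fluorescence (Ex480/Em540, kinetic, 30 min) in Tris-HCl pH 7.8 buffer with EDTA, BSA, DTT and Tween-20. Compounds, top 10 μM, were preincubated with enzyme 10 min; % inhibition against no-enzyme and DMSO wells gave four-parameter IC50s.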

Data set [5] is described as follows: Liver microsomal metabolic stability, human liver microsomes (HLM). Particulars: human, liver microsomes.
Where [6] appears, read: pH 2, aqueous buffer, PBS pH 2.0, 25° C., read-out: Solubility at pH 2.0.
[7] abbreviates: pH 7.4, aqueous buffer, PBS pH 7.4, 25° C., read-out: Solubility at pH 7.4.

As usually defined, the half-life is the time in which the quantity being followed falls by half. By IC50 is commonly meant the midpoint of a concentration-inhibition curve. The term solubility denotes how much of the substance goes into solution per volume.

Chain of USP1/UAF1 enzyme (O94782 whole entry): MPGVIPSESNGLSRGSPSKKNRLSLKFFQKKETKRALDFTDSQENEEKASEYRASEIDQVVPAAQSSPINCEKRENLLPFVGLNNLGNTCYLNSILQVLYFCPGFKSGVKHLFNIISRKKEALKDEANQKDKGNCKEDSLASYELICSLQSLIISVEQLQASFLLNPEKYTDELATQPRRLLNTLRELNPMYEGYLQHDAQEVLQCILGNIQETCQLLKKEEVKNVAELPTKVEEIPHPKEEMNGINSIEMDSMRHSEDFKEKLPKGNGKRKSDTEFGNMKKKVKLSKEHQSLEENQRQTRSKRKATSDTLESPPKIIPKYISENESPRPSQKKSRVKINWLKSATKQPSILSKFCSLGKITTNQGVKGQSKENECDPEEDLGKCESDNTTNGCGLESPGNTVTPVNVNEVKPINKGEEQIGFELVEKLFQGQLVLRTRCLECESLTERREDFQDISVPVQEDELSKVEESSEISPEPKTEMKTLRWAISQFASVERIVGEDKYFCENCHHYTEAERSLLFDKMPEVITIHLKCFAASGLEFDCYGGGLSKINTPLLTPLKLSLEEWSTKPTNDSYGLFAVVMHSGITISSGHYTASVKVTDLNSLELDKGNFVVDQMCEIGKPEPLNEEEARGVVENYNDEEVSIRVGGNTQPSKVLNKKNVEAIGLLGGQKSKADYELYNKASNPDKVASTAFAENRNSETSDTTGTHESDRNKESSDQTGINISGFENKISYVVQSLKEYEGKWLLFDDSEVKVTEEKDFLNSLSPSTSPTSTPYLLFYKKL
Chain of USP1/UAF1 enzyme (Q8TAF3 whole entry partner): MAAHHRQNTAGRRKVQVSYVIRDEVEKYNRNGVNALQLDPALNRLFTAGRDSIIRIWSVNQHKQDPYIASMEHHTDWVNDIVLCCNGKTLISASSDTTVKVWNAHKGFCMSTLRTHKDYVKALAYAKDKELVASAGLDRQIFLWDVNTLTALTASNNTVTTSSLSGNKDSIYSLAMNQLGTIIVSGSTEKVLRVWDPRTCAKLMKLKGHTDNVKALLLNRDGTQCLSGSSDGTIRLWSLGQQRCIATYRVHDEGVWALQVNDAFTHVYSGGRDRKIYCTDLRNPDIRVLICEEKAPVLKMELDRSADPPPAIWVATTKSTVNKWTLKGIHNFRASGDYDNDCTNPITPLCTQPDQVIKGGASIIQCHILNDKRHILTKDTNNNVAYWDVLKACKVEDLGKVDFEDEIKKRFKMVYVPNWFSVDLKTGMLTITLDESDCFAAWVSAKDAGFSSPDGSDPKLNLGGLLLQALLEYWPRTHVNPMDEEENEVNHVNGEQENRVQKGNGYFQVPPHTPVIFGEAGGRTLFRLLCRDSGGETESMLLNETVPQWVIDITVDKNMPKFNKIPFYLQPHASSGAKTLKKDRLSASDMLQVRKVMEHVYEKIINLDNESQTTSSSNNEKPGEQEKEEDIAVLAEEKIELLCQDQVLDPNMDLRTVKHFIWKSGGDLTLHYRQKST

With `CCn1cc(C(F)(F)F)nc1-c1ccc([C@@H](C)n2c(=O)ccn3nc(-c4c(OC)ncnc4C4CC4)cc23)cc1` [Example 335, (R)-2-(4-cyclopropyl-6-methoxypyrimidin-5-yl)-4-(1-(4-(1-ethyl-4-(trifluoromethyl)-1H-imidazol-2-yl)phenyl)ethyl)pyrazolo[1,5-a]pyrimidin-5(4H)-one], the half-life at 1 μM in data set [1] and in data set [5] was above 25 min in each case. For the same molecule, the IC50 in data set [2] and in data set [4] was below 100 nM throughout. For the same molecule, the solubility at 24 h in data set [3] (setting [6]) was at least 10 µM; in data set [3] (setting [7]) it was below 10 µM.
As for `CCn1cc(C(F)(F)F)nc1-c1ccc([C@H](C)n2c(=O)ccn3nc(-c4c(OC)ncnc4C4CC4)cc23)cc1` [Example 336, (S)-2-(4-cyclopropyl-6-methoxypyrimidin-5-yl)-4-(1-(4-(1-ethyl-4-(trifluoromethyl)-1H-imidazol-2-yl)phenyl)ethyl)pyrazolo[1,5-a]pyrimidin-5(4H)-one], the half-life at 1 μM in data set [1] is above 25 min; in data set [5], below 25 min. Besides, the IC50 in data set [2] and in data set [4] was below 100 nM each time. Also, the solubility at 24 h was at least 10 µM in data set [3] (setting [6]) and below 10 µM in data set [3] (setting [7]).
Turning to `CCn1cc(C(F)(F)F)nc1-c1ccc(Cn2c(=O)ccn3nc(-c4c(OC)ncnc4C4CC4)nc23)cc1` [Example 337, 2-(4-cyclopropyl-6-methoxypyrimidin-5-yl)-4-(4-(1-ethyl-4-(trifluoromethyl)-1H-imidazol-2-yl)benzyl)-[1,2,4]triazolo[1,5-α]pyrimidin-5(4H)-one], the half-life at 1 μM in data set [1] and in data set [5] was above 25 min throughout. In addition, the IC50 in data set [2] and in data set [4] was below 100 nM throughout. Also, the solubility at 24 h in data set [3] (setting [6]) was at least 10 µM; in data set [3] (setting [7]) it was below 10 µM.
In the case of `CCn1cc(C(F)(F)F)nc1-c1ccc([C@@H](C)n2c(=O)ccn3nc(-c4c(OC)ncnc4C4CC4)nc23)cc1` [Example 338, (R)-2-(4-cyclopropyl-6-methoxypyrimidin-5-yl)-4-(1-(4-(1-ethyl-4-(trifluoromethyl)-1H-imidazol-2-yl)phenyl)ethyl)-[1,2,4]triazolo[1,5-a]pyrimidin-5(4H)-one], the half-life at 1 μM is below 25 min in data set [1] and above 25 min in data set [5]. Besides, the IC50 in data set [2] and in data set [4] was below 100 nM in each case. Moreover, the values for the solubility at 24 h in data set [3] (setting [6]) and in data set [3] (setting [7]) were at least 10 µM and below 10 µM, respectively.
`CCn1cc(C(F)(F)F)nc1-c1ccc([C@H](C)n2c(=O)ccn3nc(-c4c(OC)ncnc4C4CC4)nc23)cc1` [Example 339, (S)-2-(4-cyclopropyl-6-methoxypyrimidin-5-yl)-4-(1-(4-(1-ethyl-4-(trifluoromethyl)-1H-imidazol-2-yl)phenyl)ethyl)-[1,2,4]triazolo[1,5-a]pyrimidin-5(4H)-one]: the half-life at 1 μM in data set [1] was above 25 min; in data set [5], below 25 min. Besides, the IC50 in data set [2] and in data set [4] was below 100 nM throughout. Further, the results for the solubility at 24 h in data set [3] (setting [6]) and in data set [3] (setting [7]) were at least 10 µM and below 10 µM, respectively.
For `CCn1cc(C(F)(F)F)nc1-c1ccc(C(C)n2c(=O)ccn3nc(-c4c(OC)ncnc4C4CC4)nc23)cc1` (stereo not drawn) [Example 340, 2-(4-cyclopropyl-6-methoxypyrimidin-5-yl)-4-(1-(4-(1-ethyl-4-(trifluoromethyl)-1H-imidazol-2-yl)phenyl)ethyl)-[1,2,4]triazolo[1,5-a]pyrimidin-5(4H)-one], the half-life at 1 μM in data set [1] and in data set [5] was above 25 min throughout. In addition, the IC50 in data set [2] and in data set [4] was below 100 nM each time. Also, the solubility at 24 h in data set [3] (setting [6]) and in data set [3] (setting [7]) was at least 10 µM throughout.
`CCn1cc(C(F)(F)F)nc1-c1ccc(Cn2c(=O)ccn3nc(-c4c(Cl)cnn4C(C)C)nc23)cc1F` [Example 343, 2-(4-chloro-1-isopropyl-1H-pyrazol-5-yl)-4-(4-(1-ethyl-4-(trifluoromethyl)-1H-imidazol-2-yl)-3-fluorobenzyl)-[1,2,4]triazolo[1,5-a]pyrimidin-5(4H)-one]: the half-life at 1 μM in data set [1] and in data set [5] was above 25 min throughout. The 50% inhibitory concentration (IC50) in data set [2] and in data set [4] was below 100 nM in each case. Besides, the solubility at 24 h in data set [3] (setting [6]) and in data set [3] (setting [7]) was below 10 µM each time.
With `CCn1cc(C(F)(F)F)nc1-c1ccc(Cn2c(=O)ccn3nc(-c4c(OC(F)F)ncnc4C4CC4)nc23)cc1` [Example 345], the half-life at 1 μM in data set [1] and in data set [5] was above 25 min throughout. The 50% inhibitory concentration (IC50) in data set [2] and in data set [4] was below 100 nM each time. The solubility at 24 h in data set [3] (setting [6]) and in data set [3] (setting [7]) was below 10 µM in each case.
As for `COc1ncnc(C2CC2)c1-c1nc2n(Cc3ccc(-c4nc(C(F)(F)F)cn4C(C)C)c(F)c3OC)c(=O)ccn2n1` [Example 346, 2-(4-cyclopropyl-6-methoxypyrimidin-5-yl)-4-(3-fluoro-4-(1-isopropyl-4-(trifluoromethyl)-1H-imidazol-2-yl)-2-methoxybenzyl)-[1,2,4]triazolo[1,5-a]pyrimidin-5(4H)-one], the half-life at 1 μM in data set [1] and in data set [5] was above 25 min each time. Further, the IC50 in data set [2] and in data set [4] was below 100 nM throughout. Further, the solubility at 24 h in data set [3] (setting [6]) and in data set [3] (setting [7]) was below 10 µM throughout.
As for `CCn1cc(C(F)(F)F)nc1-c1ccc(CN2C(=O)C(C)Cn3nc(-c4c(OC)ncnc4C4CC4)nc32)cc1F` (stereo not drawn) [Example 347, 2-(4-cyclopropyl-6-methoxypyrimidin-5-yl)-4-(4-(1-ethyl-4-(trifluoromethyl)-1H-imidazol-2-yl)-3-fluorobenzyl)-6-methyl-6,7-dihydro-[1,2,4]triazolo[1,5-α]pyrimidin-5(4H)-one], the half-life at 1 μM in data set [1] and in data set [5] was above 25 min throughout. Further, the IC50 in data set [2] and in data set [4] was below 100 nM throughout. Also, the solubility at 24 h in data set [3] (setting [6]) and in data set [3] (setting [7]) was at least 10 µM each time.
As to `CCn1cc(C(F)(F)F)nc1-c1ccc(CN2C(=O)C(C)Cn3nc(-c4c(Cl)cnn4C(C)C)nc32)cc1F` (stereo not drawn) [Example 350, 2-(4-chloro-1-isopropyl-1H-pyrazol-5-yl)-4-(4-(1-ethyl-4-(trifluoromethyl)-1H-imidazol-2-yl)-3-fluorobenzyl)-6-methyl-6,7-dihydro-[1,2,4]triazolo[1,5-a]pyrimidin-5(4H)-one], the half-life at 1 μM in data set [1] and in data set [5] was above 25 min in each case. Besides, the concentration for half-maximal inhibition (IC50) in data set [2] and in data set [4] was below 100 nM in each case. For the same molecule, the solubility at 24 h in data set [3] (setting [6]) and in data set [3] (setting [7]) was below 10 µM each time.
Regarding `CCn1cc(C(F)(F)F)nc1-c1ccc(CN2C(=O)C(C)Cn3nc(-c4c(OC(F)F)ncnc4C4CC4)nc32)cc1F` (stereo not drawn) [Example 351, 2-(4-cyclopropyl-6-(difluoromethoxy)pyrimidin-5-yl)-4-(4-(1-ethyl-4-(trifluoromethyl)-1H-imidazol-2-yl)-3-fluorobenzyl)-6-methyl-6,7-dihydro-[1,2,4]triazolo[1,5-a]pyrimidin-5(4H)-one], the half-life at 1 μM in data set [1] and in data set [5] was above 25 min throughout. Also, the 50% inhibitory concentration (IC50) in data set [2] and in data set [4] was below 100 nM in each case. The solubility at 24 h in data set [3] (setting [6]) and in data set [3] (setting [7]) was below 10 µM in each case.
For the molecule `CCn1cc(C(F)(F)F)nc1-c1ccc(NC2c3cc(-c4c(Cl)cnn4C(C)C)nn3CCC2(C)C)cc1` (stereo not drawn) [Example 352, 2-(4-chloro-1-isopropyl-1H-pyrazol-5-yl)-N-(4-(1-ethyl-4-(trifluoromethyl)-1H-imidazol-2-yl)phenyl)-5,5-dimethyl-4,5,6,7-tetrahydropyrazolo[1,5-α]pyridin-4-amine], the figures for the half-life at 1 μM in data set [1] and in data set [5] were below 25 min and above 25 min, respectively. Besides, the half-maximal inhibitory concentration (IC50) in data set [2] and in data set [4] was below 100 nM in each case. Further, the solubility at 24 h in data set [3] (setting [6]) and in data set [3] (setting [7]) was below 10 µM throughout.
Take `CCn1cc(C(F)(F)F)nc1-c1ccc(CN2CC(N)Cn3nc(-c4c(Cl)cnn4C(C)C)cc32)cc1F` (stereo not drawn) [Example 353, 2-(4-chloro-1-isopropyl-1H-pyrazol-5-yl)-4-(4-(1-ethyl-4-(trifluoromethyl)-1H-imidazol-2-yl)-3-fluorobenzyl)-4,5,6,7-tetrahydropyrazolo[1,5-α]pyrimidin-6-amine]: the half-life at 1 μM in data set [1] and in data set [5] was below 25 min throughout. Besides, the IC50 in data set [2] and in data set [4] was below 100 nM throughout. For the same molecule, the solubility at 24 h in data set [3] (setting [6]) is at least 10 µM; in data set [3] (setting [7]), below 10 µM.
